We go through three compounds from PMC7876005 (Communications Biology, 2021).

Where a SMILES comes first, the peptide text is derived from it.

One assay addresses T1, Pgk1 (Saccharomyces cerevisiae, UniProt P00560).
T1 sequence (P00560 2-416): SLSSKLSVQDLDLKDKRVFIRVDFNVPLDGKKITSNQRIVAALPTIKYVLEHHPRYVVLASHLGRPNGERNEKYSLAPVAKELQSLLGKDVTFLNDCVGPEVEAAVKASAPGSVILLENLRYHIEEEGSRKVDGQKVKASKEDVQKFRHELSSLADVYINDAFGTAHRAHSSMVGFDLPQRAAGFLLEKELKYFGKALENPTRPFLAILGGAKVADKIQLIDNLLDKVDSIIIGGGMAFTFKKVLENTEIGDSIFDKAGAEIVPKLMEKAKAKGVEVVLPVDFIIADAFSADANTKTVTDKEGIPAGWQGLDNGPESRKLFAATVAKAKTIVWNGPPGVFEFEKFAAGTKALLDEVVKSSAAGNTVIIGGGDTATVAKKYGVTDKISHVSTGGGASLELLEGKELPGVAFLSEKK
Put plainly: microscale thermophoresis. For orientation: MST reads how a fluorescent partner responds to local heating, with and without ligand.

The target of the next assay is T2, Pnp1 (Saccharomyces cerevisiae, UniProt Q05788).
T2 construct: recombinant, overexpressed in yeast ORF collection strain (Dharmacon), purified; monomeric mass 33 kDa
T2 sequence (Q05788 2-311): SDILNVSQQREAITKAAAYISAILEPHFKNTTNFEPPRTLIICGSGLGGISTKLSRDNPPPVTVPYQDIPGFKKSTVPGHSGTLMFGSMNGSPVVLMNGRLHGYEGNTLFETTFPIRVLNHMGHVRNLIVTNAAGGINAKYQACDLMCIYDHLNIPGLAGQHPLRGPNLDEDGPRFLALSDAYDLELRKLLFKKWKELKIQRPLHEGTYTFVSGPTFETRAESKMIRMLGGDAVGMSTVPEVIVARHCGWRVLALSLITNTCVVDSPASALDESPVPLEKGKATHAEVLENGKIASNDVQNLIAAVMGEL
Nature of the assay: LC-MS assay of inosine conversion to hypoxanthine. Format: biochemical.

What is called Kd is the free concentration of one partner at which half of the binding sites on the other are occupied at equilibrium, for simple one-to-one binding. Higher therefore signals weaker binding. Take `Nc1ncnc2c1ncn2[C@@H]1O[C@H](COP(=O)(O)OP(=O)(O)OP(=O)(O)O)[C@@H](O)[C@H]1O` [ATP]: the dissociation constant Kd on Pgk1 amounted to 122 µM.
Still for that read-out and setting: in the case of `CC(C)C[C@H](NC(=O)[C@@H](N)CO)C(=O)O` [Ser-Leu] (H-Ser-Leu-OH) it was 416 µM.
One may read the inhibition as the change of the read-out against control, counted positive when it falls. Compound `O=c1[nH]c(=O)c2[nH]cnc2[nH]1` [xanthine] came in with an inhibition at 100 µM against Pnp1 of less than 32%.
